Measured values as given in US20170173008A1, “ANTIMICROBIAL AGENTS AND SCREENING METHODS” (PRESIDENT AND FELLOWS OF HARVARD COLLEGE, priority 2014, published 2017).

Assays:
[1] = molecular target: T1, DsbB (Escherichia coli, UniProt P0A6M2, C49V/C8A); assay: cell-based; assay type: cell-based, E. coli; details: for EC50 RATIO (EC50 compound 16/EC50): E. coli DHB7935, liquid media
T1 construct: expressed in transfected cells; host or cells: E. coli DHB7935 (HK295 ΔdsbB λatt::malF-lacZ102, φ80::pDSW206dsbBhis6-c-myc)
T1 sequence (P0A6M2 whole entry C8A/C49V): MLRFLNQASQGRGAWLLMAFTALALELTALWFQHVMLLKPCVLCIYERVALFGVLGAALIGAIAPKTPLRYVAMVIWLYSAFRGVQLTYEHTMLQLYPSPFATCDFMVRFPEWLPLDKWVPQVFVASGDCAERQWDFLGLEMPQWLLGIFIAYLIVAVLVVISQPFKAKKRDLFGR

[2] = molecular target: T2, purified EcDsbB (Escherichia coli, UniProt P0A6M2, C49V/C8A); assay: In vitro assay of purified DsbB (ubiquinone reduction); assay type: biochemical, E. coli; details: IC50 (μM), Table 9
T2 construct: made in house; host or cells: E. coli
T2 sequence (P0A6M2 whole entry C8A/C49V): as above
From the text: In addition to the in vivo assays of MICs, we have purified DsbB from E. coli and assessed the concentration dependence for inhibition of the enzyme's activity in oxidizing DsbA.
In this assay, we determine the concentration of a compound necessary to reduce the activity of purified DsbB enzyme by 50%. DsbB uses ubiquinone as a co-factor for the generation of disulfide bonds. DsbB oxidizes DsbA and reduces ubiquinone. When it is in the oxidized state, ubiquinone absorbs strongly at 275 nm but it has a diminished absorbance when it is in the reduced state at the same wavelength. Therefore, DsbB activity can be measured by the reduction of ubiquinone and this is assessed by following the decrease of absorbance of ubiquinone at 275 nm. The assay uses 20 μM purified and DTT-reduced DsbA, 20 uM UbQ-5, and 2 nM purified DsbB at pH6.0.
We tested several compounds for their inhibitory effect on EcDsbB-mediated ubiquinone reduction using purified enzymes. In this assay, reduced DsbA provides the source of electrons that are used by EcDsbB to reduce ubiquinone-5. The compounds show dose-dependent inhibition of EcDsbB with half-maximal inhibitory concentrations (IC50) in the low-μM range.

[3] = molecular target: T3, Erp5 (Homo sapiens, UniProt Q15084); assay: Insulin reductase activity assay, Erp5; assay type: biochemical
T3 construct: His; Passam F., Furie B., Furie B.C; (persons named as the source, not a vendor)
T3 sequence (Q15084 20-440): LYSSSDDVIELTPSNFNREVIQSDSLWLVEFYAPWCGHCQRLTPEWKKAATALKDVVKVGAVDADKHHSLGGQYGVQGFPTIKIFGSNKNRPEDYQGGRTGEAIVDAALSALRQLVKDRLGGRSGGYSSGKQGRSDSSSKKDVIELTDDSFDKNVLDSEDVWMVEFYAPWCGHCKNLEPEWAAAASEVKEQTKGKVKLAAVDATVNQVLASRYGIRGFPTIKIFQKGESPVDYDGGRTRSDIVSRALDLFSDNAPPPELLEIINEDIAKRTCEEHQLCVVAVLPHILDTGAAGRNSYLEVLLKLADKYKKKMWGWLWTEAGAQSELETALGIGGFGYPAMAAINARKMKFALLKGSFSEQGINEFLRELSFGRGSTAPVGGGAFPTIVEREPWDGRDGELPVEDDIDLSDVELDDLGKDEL

[4] = molecular target: T4, Erp57 (Homo sapiens, UniProt P30101); assay: Insulin reductase activity assay, Erp57; assay type: biochemical
T4 construct: His; purchased AbCam, Cambridge, Mass
T4 sequence (P30101 25-505): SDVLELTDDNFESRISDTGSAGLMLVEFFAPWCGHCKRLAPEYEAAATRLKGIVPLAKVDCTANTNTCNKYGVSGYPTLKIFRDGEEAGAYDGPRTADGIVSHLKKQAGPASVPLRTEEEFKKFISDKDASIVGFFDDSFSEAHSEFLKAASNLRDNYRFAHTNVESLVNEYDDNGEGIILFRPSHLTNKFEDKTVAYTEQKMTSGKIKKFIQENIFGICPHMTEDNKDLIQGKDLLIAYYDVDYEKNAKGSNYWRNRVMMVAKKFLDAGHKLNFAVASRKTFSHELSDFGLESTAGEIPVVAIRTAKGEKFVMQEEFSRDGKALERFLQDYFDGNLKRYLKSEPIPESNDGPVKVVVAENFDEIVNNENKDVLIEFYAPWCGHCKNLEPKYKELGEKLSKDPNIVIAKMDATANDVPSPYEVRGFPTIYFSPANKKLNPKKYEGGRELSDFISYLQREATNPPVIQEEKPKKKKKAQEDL

[5] = molecular target: T5, Erp72 (Homo sapiens, UniProt P13667); assay: Insulin reductase activity assay, Erp72; assay type: biochemical
T5 construct: His; purchased Enzo, Farmingdale, N.Y
T5 sequence (P13667 21-645): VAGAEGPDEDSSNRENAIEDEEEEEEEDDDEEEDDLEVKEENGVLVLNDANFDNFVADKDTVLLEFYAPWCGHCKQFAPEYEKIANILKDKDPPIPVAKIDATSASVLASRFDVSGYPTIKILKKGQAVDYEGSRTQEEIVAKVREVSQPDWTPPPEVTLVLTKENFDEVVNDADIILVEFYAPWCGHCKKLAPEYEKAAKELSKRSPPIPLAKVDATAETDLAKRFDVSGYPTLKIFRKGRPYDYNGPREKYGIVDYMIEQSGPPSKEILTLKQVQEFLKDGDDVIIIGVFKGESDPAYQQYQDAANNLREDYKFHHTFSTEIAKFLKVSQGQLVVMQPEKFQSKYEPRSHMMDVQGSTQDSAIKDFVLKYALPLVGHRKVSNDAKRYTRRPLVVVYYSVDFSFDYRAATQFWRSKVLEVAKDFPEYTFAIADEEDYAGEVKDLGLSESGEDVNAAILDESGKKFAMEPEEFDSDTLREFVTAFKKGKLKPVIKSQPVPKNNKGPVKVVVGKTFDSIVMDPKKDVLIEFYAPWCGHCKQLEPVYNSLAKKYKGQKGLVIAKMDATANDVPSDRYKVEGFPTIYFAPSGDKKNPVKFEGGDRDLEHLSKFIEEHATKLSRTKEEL

[6] = molecular target: T6, PDI (Homo sapiens, UniProt P07237); assay: Insulin reductase activity assay, PDI; assay type: biochemical
T6 construct: His; purchased Prospec, East Brunswick, N.J
T6 sequence (P07237 18-508, species assumed): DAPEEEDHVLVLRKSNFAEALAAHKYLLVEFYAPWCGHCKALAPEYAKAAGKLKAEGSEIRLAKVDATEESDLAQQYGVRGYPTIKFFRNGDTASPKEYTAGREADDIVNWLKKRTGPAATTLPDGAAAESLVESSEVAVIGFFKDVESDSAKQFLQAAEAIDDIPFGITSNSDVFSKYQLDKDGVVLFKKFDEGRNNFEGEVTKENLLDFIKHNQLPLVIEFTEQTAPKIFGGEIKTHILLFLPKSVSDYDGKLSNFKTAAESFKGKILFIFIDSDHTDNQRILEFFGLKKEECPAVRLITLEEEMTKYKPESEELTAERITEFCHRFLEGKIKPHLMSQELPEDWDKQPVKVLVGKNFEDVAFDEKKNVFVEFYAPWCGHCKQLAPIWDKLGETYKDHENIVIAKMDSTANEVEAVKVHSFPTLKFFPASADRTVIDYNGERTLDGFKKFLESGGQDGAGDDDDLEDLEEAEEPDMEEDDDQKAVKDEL

[7] = molecular target: T7, mouse VKORc1 (Mus musculus, UniProt Q9CRC0); assay: Assay for VKOR enzymatic activity in mouse liver microsomes; assay type: biochemical
T7 construct: Solubilized mouse liver microsomes (20 μL) were added to 180 μL of buffer; from tissue; host or cells: mouse liver (solubilized microsomes)
T7 sequence (Q9CRC0 1-161): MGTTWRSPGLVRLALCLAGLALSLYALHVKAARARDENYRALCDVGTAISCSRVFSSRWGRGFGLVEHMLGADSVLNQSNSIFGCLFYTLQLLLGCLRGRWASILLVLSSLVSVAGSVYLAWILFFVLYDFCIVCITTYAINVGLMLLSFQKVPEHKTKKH

[8] = system: M. tuberculosis H37Rv; assay: M. tuberculosis H37Rv growth inhibition (Alamar Blue MIC); assay type: cell-based, Mycobacterium tuberculosis; details: three different media
[9] = molecular target: T8, VKOR of M. tuberculosis (Mycobacterium tuberculosis, UniProt I6X5W1); assay type: cell-based; details: agar assay
T8 sequence (I6X5W1 1-210): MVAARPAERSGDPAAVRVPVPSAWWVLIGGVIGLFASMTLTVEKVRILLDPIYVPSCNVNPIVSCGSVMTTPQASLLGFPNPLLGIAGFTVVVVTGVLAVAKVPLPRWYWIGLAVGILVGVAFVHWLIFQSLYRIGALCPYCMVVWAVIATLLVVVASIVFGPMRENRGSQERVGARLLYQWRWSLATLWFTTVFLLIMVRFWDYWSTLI

[10] = molecular target: E. coli DsbB (Escherichia coli, UniProt P0A6M2); assay: Blue/white beta-galactosidase agar assay, DsbB-based E. coli strain; assay type: cell-based; details: agar assay
E. coli DsbB, sequence (P0A6M2 whole entry): as the sequence (P0A6M2 whole entry C8A/C49V) above, with A8C, V49C counted along it

O=c1c(Cl)c(Cl)cnn1-c1ccccc1Cl [Compound 16.20]
EC50 [1]: 1.34 µM
EC50 RATIO (EC50 compound 16/EC50) [1]: 3.80

O=c1c(Br)c(Br)cnn1Cc1ccccc1 [Compound 16.17]
EC50 [1]: 13.2 µM

N#Cc1cccc(Cn2ncc(Cl)c(Cl)c2=O)c1 [Compound 16.9]
EC50 [1]: 509 µM

COc1cccc(Cn2ncc(Cl)c(Cl)c2=O)c1 [Compound 16.11]
EC50 [1]: 232 µM

O=c1c(Cl)c(Cl)cnn1Cc1ccccc1F [Compound 16.23]
EC50 [1]: 3.09 µM
EC50 RATIO (EC50 compound 16/EC50) [1]: 1.65

O=c1c(Cl)c(Cl)cnn1Cc1ccccc1OC(F)(F)F [Compound 16.36, 4,5-dichloro-2-(2-(trifluoromethoxy)benzyl)pyridazin-3(2)-one]
EC50 [1]: 7.12 µM

O=c1c(N2CCCC2)c(Cl)cnn1-c1ccccc1 [Compound 15]
EC50 [1]: 28.1 µM
IC50 [2]: 8.24 µM

O=c1c(Cl)c(Br)cnn1Cc1ccccc1Cl [Compound 16.44, 5-bromo-4-chloro-2-(2-chlorobenzyl)pyridazin-3(2H)-one]
EC50 [1]: 0.32 µM

Cc1c(Cl)cnn(Cc2ccccc2Cl)c1=O [Compound 16.26, 5-chloro-2-(2-chlorobenzyl)-4-methylpyridazin-3(2H)-one]
EC50 [1]: 18.7 µM

O=c1c(Br)c(Br)cnn1Cc1ccccc1Cl [Compound 16.27, 4,5-dibromo-2-(2-chlorobenzyl)pyridazin-3(2H)-one]
EC50 [1]: 0.025 µM

Cc1ccccc1Cn1ncc(Cl)c(Cl)c1=O [Compound 16.13]
EC50 [1]: 3.56 µM
EC50 RATIO (EC50 compound 16/EC50) [1]: 1.43

CNC(=O)C#CCC1C(=O)c2ccccc2C1=O [Compound 1]
inhibition of Erp5 activity [3]: inhibited
inhibition of Erp57 activity [4]: inhibited
inhibition of Erp72 activity [5]: inhibited
inhibition of PDI activity [6]: inhibited
inhibition of VKOR activity [7]: inhibited
effect on growth of M. tuberculosis (in words) [8]: relatively strong effect in only one of the three media

N#Cc1ccccc1Cn1ncc(Cl)c(Cl)c1=O [Compound 16.14]
EC50 [1]: 13.2 µM
EC50 RATIO (EC50 compound 16/EC50) [1]: 0.39

Cc1oncc1C(=O)Nc1ccccc1 [Compound 4]
effect on growth of M. tuberculosis (in words) [8]: no effects

O=c1c(Cl)c(Cl)cnn1Cc1cccs1 [Compound 16.41, 4,5-dichloro-2-(thiophen-2-ylmethyl)pyridazin-3(2H)-one]
EC50 [1]: 33.1 µM

CCOc1c(Cl)cnn(-c2ccccc2)c1=O [Compound 14]
EC50 [1]: 25.6 µM
IC50 [2]: 6.57 µM

O=C1c2ccccc2C(=O)C1c1ccc(Br)cc1 [brominedione, reference compound]
inhibition in the VKOR screen (MtbVKOR-based strain), in words [9]: strong inhibitor
inhibition of the DsbB-based strain, in words [10]: not of the DsbB-based strain

O=c1cc(Cl)cnn1Cc1ccccc1Cl [Compound 16.25, 5-chloro-2-(2-chlorobenzyl)pyridazin-3(2H)-one]
EC50 [1]: 8.37 µM

CCCCNc1c(Cl)cnn(-c2ccccc2)c1=O [Compound 13]
EC50 [1]: 30.4 µM
IC50 [2]: 8.12 µM

Cc1nnc(-c2cccc(C)c2C)c(C)n1 [Compound 8]
effect on growth of M. tuberculosis (in words) [8]: no effects

O=c1c(Cl)c(Cl)cnn1Cc1ccccc1C(F)(F)F [Compound 16.35, 4,5-dichloro-2-(2-(trifluoromethyl)benzyl)pyridazin-3(2H)-one]
EC50 [1]: 2.81 µM

O=c1c(Cl)c(Cl)cnn1Cc1ccncc1Cl [Compound 16.39]
EC50 [1]: 15.2 µM

O=c1c(Cl)c(Cl)cnn1Cc1c(Cl)cccc1Cl [Compound 16.37, 4,5-dichloro-2-(2,6-dichlorobenzyl)pyridazin-3(2H)-one]
EC50 [1]: 6570 µM

O=c1c(Cl)c(Cl)cnn1Cc1sccc1Cl [Compound 16.42, 4,5-dichloro-2-((3-chlorothiophen-2-yl)methyl)pyridazin-3(2H)-one]
EC50 [1]: 1.45 µM

COc1c(Cl)cnn(-c2cccc(C)c2)c1=O [Compound 17]
EC50 [1]: 72.8 µM
IC50 [2]: 5.42 µM

O=c1c(Br)c(Cl)cnn1Cc1ccccc1Cl [Compound 16.43, 4-bromo-5-chloro-2-(2-chlorobenzyl)pyridazin-3(2H)-one]
EC50 [1]: 0.29 µM

O=c1c(Cl)c(Cl)cnn1Cc1ncccc1Cl [Compound 16.40, 4,5-dichloro-2-((3-chloropyridin-2-yl)methyl)pyridazin-3(2H)-one]
EC50 [1]: 10.8 µM

Cc1cccc(Cn2ncc(Cl)c(Cl)c2=O)c1 [Compound 16.4]
EC50 [1]: 13.9 µM
EC50 RATIO (EC50 compound 16/EC50) [1]: 0.37
IC50 [2]: 1.27 µM

O=c1c(Cl)c(Cl)cnn1Cc1c(F)cccc1Cl [Compound 16.22]
EC50 [1]: 18.1 µM

O=c1c(Cl)c(Cl)cnn1-c1ccccc1 [Compound 16.2]
EC50 [1]: 2.04 µM
fold more inhibitory than compound 16 [1]: 10 fold
EC50 RATIO (EC50 compound 16/EC50) [1]: 2.49
IC50 [2]: 2.34 µM

O=c1c(Cl)c(Cl)cnn1-c1ccccc1F [Compound 16.24]
EC50 [1]: 13.7 µM
EC50 RATIO (EC50 compound 16/EC50) [1]: 0.73

O=c1c(Cl)c(Cl)cnn1Cc1ccccc1Br [Compound 16.12]
EC50 [1]: 0.47 µM
fold more inhibitory than compound 16 [1]: 10 fold
EC50 RATIO (EC50 compound 16/EC50) [1]: 10.77

COC(C)(C)C#CC(=O)c1cccc2ccccc12 [Compound 23]
effect on growth of M. tuberculosis (in words) [8]: inhibitor of M. tuberculosis growth
inhibition of the DsbB-based strain, in words [10]: weak inhibitor

O=c1c(Cl)c(Cl)cnn1Cc1ccc([N+](=O)[O-])cc1 [Compound 16.8]
EC50 [1]: 38.7 µM
